Data set [1] concerns human cell lines (HepG2, HCT-116, HEK-293, and HeLa). In words: Cytotoxicity on human cell lines, average / overall, and therapeutic index. It counts as cell-based. As to conditions: up to 900 µM, HCT-116, HepG2, HEK-293.
In data set [2] the test system is B. duncani (WA-1). In words: In vivo efficacy in mouse model of lethal B. duncani infection. Details: species or system C3H/HeJ mice. The protocol:
The finding that JPC-2067 is effective against B. duncani in vitro led us to investigate the activity of its prodrug JPC-2056 in the mouse model of lethal infection (C3H/HeJ mice) ([57]). […] To evaluate the efficacy of JPC-2056, two groups of 5 female mice each were infected with 1 × 10^4 B. duncani-infected erythrocytes and at day 1 post-infection (DPI-1) received either a vehicle (PEG-400) or 30 mg/kg of JPC-2056 administered orally once a day for 10 days. […] However, parasitemia in these mice continued to increase over time reaching peak levels at DPI-12 (Fig. 3A and B). These animals succumbed to lethal B. duncani infection at DPI-13 (Fig. 3A and C).
(§1) Both C3H/HeJ and CB17/SCID mice aged 5–6 weeks (4 to 5 mice per group in each of the studies described herein) were injected intravenously with (1 × 10^4 iRBCs) of B duncani (WA-1) and B. microti (LabS1) parasites, respectively. The infected mice were treated by oral gavage over 10 days (DPI −1 to 10). During the treatment, each mouse received 100 µL of either vehicle (PEG-400) or prodrug JPC-2056 (30 mg/kg). Percent parasitemia was determined by counting at least 3,000 RBCs from Giemsa-stained […] blood smears.

In data set [3] the target is T1, B. duncani DHFR-TS (Babesia duncani, UniProt A0AAD9UQZ8). The experiment in a line: Enzyme inhibition assay: DHFR activity of purified DHFR-TS. It counts as biochemical. The protocol:
(§2) The inhibition of DHFR activity with selected JPC derivatives was measured as previously described ([59]). Briefly, the purified enzyme (0.1 µM) (supporting information) (Fig. S7) was incubated with increasing concentrations of JPC-2067 or JPC-2056 in a reaction buffer containing 300 µM DHF and 300 µM NADPH. OD340 reduction rate (OD340/min) was measured for further calculation. The % inhibition was calculated using the formula:
(§3) =1−((OD340/min)sample−(OD340/min)negative control)/((OD340/min)positive control−(OD340/min)negative control)
(§4) The IC50 was determined from a sigmoidal dose-response curve using GraphPad Prism version 9.1.2.
(§5) Dihydrofolate reductase-thymidylate synthase (DHFR-TS) gene from B. duncani (BdDHFR-TS BdWA1_001462) and B. microti (BmDHFR-TS BMR1_02g03680) were cloned into pMAL-c4x by GenScript USA Inc. Both enzymes were expressed as fusion proteins with N’-terminal maltose binding protein (MBP) tag. Constructs of pMAL-c4x-BdDHFR-TS and pMAL-c4x-BmDHFR-TS were transformed by heat shock into E. coli BL-21(DE3). E. coli BL-21(DE3) harboring pMAL-c4x-DHFR-TS was grown overnight in 2 ml LB ampicillin (100 µg/mL). Cultures were diluted 100-fold in fresh LB medium with 0.2% glucose and grown to A600 of ~0.5 at 37°C. DHFR-TS expression was induced by the addition of 0.5 mM isopropyl thiogalactoside (IPTG) followed by growth for overnight at 16°C or at room temperature (RT). The cells were harvested by centrifugation (8,000 × g × 10 min, 4°C), washed by resuspension in water, and re-centrifuged. Cells were used directly for purification or kept frozen at -20°C. Prior to enzyme purification, cells were re-suspended in binding buffer containing 25 mM Tris-HCl pH 8, 500 mM NaCl, 0.5% glycerol, and 50mM L-arginine. Cells were supplemented benzonase DNAse (250U/µl) and 3-((3-cholamidopropyl) dimethylammonio)-1-propanesulfonate (CHAPS) (0.002%) and were disrupted by sonication on ice using Omni Sonic Ruptor 400 Ultrasonic Homogenizer (15-sec burst at 70% amplitude, 3 times, with 30-sec cooling intervals). A soluble supernatant was prepared by centrifugation (16,000 × g × 20 min) of the cells sonicate.
(§6) Recombinant DHFR-TSs were purified from the clear cell extract supernatant using amylose resin (NEB), methotrexate-agarose beads, and in some cases size exclusion chromatography (SEC). Briefly, soluble supernatant was incubated with amylose beads in binding buffer with gentle agitation for 1h at 4°C. Following enzyme adsorption, the affinity matrix was transferred to a column and unbound proteins were removed by washing with binding buffer. Purified enzymes were eluted with elution buffer containing 10 mM maltose. Amylose elution fractions were loaded onto MTX-agarose resin and purified DHFR-TS enzymes were eluted using 2 mM dihydrofolic acid (DHF). […]

Data set [4] concerns the target T2, B. microti DHFR-TS (Babesia microti, UniProt A0A1R4AAV1). The data set is described as above. It counts as biochemical. On the procedure:
as §2, §3, §4, §5, §6

Another data set has as its system HEK293. The experiment in a line: Cytotoxicity on human cell line (MTT). It counts as cell-based. As to conditions: 72 h. On the procedure:
(§7) HeLa, HepG2, HEK293, and HCT116 cell lines were obtained from the American Type Culture Collection (ATCC) and maintained in Dulbecco’s modified Eagle’s medium (DMEM) (Invitrogen 11995–065) containing 25 mM glucose, 1 mM sodium pyruvate, and supplemented with 5 mM HEPES, 10% FBS, and penicillin-streptomycin (50 U/mL penicillin, 50 µg/mL streptomycin). Cells were seeded in a 96-well tissue culture plate (20,000 cells per well) and allowed to adhere for 24 hours, after which they were treated with a 12-step 2-fold serial dilution of each drug starting at 1 mM as the highest final concentration. Cells maintained in the medium supplemented with either 0.1% or 10% DMSO were used as negative and positive vehicle controls, respectively. The plates were incubated at 37 °C for 72 h, after which each well was incubated with 0.5 mg/mL of MTT reagent (MP Chemicals #02102227) for 4 h in the dark at 37 °C. The formazan crystals formed by living cells were solubilized with the addition of 100 µL of DMSO to each well. We measured the OD590nm using a SpectraMax plate reader. From the obtained OD values, percent cell viability was estimated by normalizing to the mean of 10% DMSO wells (set as 100% toxicity) and mean of the vehicle control wells (set as 0% toxicity). Dose-response curves were plotted using GraphPad Prism version 9.1.2.

A further data set relates to HCT116. The experiment in a line: Cytotoxicity on human cell line (MTT). It counts as cell-based. As to conditions: HCT-116, 72 h. The protocol:
as §7

The next data set concerns HepG2. The experiment in a line: Cytotoxicity on human cell line (MTT). It counts as cell-based. As to conditions: 72 h. The protocol: as §7
Another data set deals with HeLa. The experiment in a line: Cytotoxicity on human cell line (MTT). It counts as cell-based. As to conditions: 72 h. The protocol: as §7
In another data set the test system is B. microti (LabS1). The experiment in a line: In vivo efficacy in SCID mouse model of B. microti infection. Details: species or system CB17/SCID mice. On the procedure:
Building on the promising efficacy of JPC-2056 against B. duncani parasites in vivo, we extended our investigation to assess the efficacy of this compound against B. microti (ATCC LabS1) in the SCID (severely combined immunodeficient) mouse model of infection following inoculation with a 1 × 10^4 infected erythrocytes.
as §1

Data set [5] deals with B. duncani (WA-1). In words: In vitro growth inhibition of B. duncani in human erythrocytes (SYBR Green-I). As to conditions: continuous in vitro culture in human erythrocytes, read-out: IC50 B. duncani. It counts as cell-based, Babesia duncani.
For data set [6], the target named is T2, B. microti DHFR-TS. Details: method as in PMID 37055610. As to conditions: recent studies; cited from earlier work.
The target in data set [7] is T1, B. duncani DHFR-TS. Details: method as in PMID 37055610. As to conditions: recent studies; cited from earlier work.
For data set [8] the following is noted: in vivo; cited from earlier work.
For the next data set, the system named is B. duncani. Details: method as in PMID 37055610. As to conditions: previous studies; read-out: IC50 against B. duncani; cited from earlier work.
[9] abbreviates: 30 mg/kg orally once a day for 10 days.
Where [10] appears, read: 0.1 µM enzyme, 300 µM DHF, 300 µM NADPH.

“Also recorded” adds a separate entry of the source. Like-named read-outs stand apart in the source and are kept apart here.

T1 sequence (A0AAD9UQZ8 entry or part of it): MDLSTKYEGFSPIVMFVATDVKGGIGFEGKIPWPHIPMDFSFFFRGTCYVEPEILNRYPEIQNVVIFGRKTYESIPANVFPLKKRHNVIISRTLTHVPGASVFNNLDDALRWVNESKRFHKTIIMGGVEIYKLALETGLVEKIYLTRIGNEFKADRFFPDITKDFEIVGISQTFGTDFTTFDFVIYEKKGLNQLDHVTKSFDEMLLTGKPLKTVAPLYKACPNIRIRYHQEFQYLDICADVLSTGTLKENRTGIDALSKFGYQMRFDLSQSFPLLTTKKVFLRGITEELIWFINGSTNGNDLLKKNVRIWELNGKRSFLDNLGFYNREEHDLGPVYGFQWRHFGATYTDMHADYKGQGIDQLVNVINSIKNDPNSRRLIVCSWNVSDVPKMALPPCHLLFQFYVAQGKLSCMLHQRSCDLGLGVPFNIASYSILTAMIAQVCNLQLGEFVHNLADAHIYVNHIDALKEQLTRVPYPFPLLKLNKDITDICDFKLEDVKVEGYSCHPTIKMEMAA
T2 sequence (A0A1R4AAV1 entry or part of it): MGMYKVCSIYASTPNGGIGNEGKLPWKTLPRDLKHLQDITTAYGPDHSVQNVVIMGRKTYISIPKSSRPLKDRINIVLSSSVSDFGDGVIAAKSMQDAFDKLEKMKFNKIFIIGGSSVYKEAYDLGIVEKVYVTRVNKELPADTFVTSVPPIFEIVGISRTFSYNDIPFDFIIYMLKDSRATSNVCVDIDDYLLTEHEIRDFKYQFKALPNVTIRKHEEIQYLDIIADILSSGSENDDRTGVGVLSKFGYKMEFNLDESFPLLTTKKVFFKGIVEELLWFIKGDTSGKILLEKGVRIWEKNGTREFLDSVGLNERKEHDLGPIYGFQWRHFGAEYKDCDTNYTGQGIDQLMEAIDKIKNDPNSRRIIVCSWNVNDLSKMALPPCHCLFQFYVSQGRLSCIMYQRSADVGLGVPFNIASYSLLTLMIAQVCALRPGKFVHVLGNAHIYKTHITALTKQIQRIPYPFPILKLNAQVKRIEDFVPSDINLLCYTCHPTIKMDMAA

Turning to `CC(C)NC(=N)NC(=N)NOCCCOc1ccc(OC(F)(F)F)cc1Cl` [JPC-2056], in data set [1], the “cytotoxicity (effect on human cell lines)” value is given as “no discernible effect”. Also, the “day animals succumbed to lethal infection” value in the data set on B. duncani (WA-1) [2] (setting [9]) was 13 DPI. In the data set on B. duncani (WA-1) [2] (setting [9]), the parasite emergence result is listed as “delay in parasite emergence”. The “parasitemia compared to vehicle-treated mice” value in the data set on B. duncani (WA-1) [2] (30 mg/kg orally once a day for 10 days (DPI-1 to 10)) is listed as “reduced peak parasitemia”. The “inhibitory activity against B. duncani DHFR-TS” value on B. duncani DHFR-TS [3] (Fig. S3A) is “no discernible inhibitory activity”. In addition, the “inhibitory activity against B. microti DHFR-TS” value against B. microti DHFR-TS [4] (Fig. S3B) was “no discernible inhibitory activity”. The half-inhibitory concentration (IC50) in the data set on HEK293 was 1000 µM; in the data set with HCT116, 1000 µM; in the data set on HepG2 it was 1000 µM; with HeLa, greater than 900 µM; with B. duncani (WA-1) [5] (Babesia duncani, Erythrocyte), 0.8694 ± 0.004 µM; with B. duncani (WA-1) [5] it was 0.869 µM. The adverse effects entry with B. microti (LabS1) (30 mg/kg once a day for 10 days) is listed as “without observable adverse effects”. Besides, in the data set on B. microti (LabS1) (30 mg/kg once a day for 10 days (DPI-1 to 10)), the “outcome of B. microti infection” value is given as “clearance of infection with no parasites detected up to DPI-45; also recorded: elimination of parasites”.

Consider `CC1(C)NC(=N)NC(=N)N1OCCCOc1ccc(OC(F)(F)F)cc1Cl` [JPC-2067], for which, in data set [1], the “cytotoxicity (effect on human cell lines)” value is recorded as “no discernible effect”. Also, the EC50 was found to be 0.001 µM on B. duncani DHFR-TS [3] (setting [10]) and 0.0147 µM on B. microti DHFR-TS [4] (setting [10]). Moreover, the IC50 with HEK293 was 1000 µM; with HCT116, 1000 µM; in the data set on HepG2, 1150 µM; with HeLa, greater than 900 µM; with B. duncani (WA-1) [5] (Babesia duncani, Erythrocyte), 0.0089 ± 0.002 µM; in the data set on B. duncani (WA-1) [5] it was 0.00893 µM.

With `CC1(C)N=C(N)N=C(N)N1OCCCOc1cc(Cl)c(Cl)cc1Cl` [WR99210], the “inhibition of B. microti DHFR-TS activity” value on B. microti DHFR-TS [6] was “inhibits the activity”. Also, the “inhibition of B. duncani DHFR-TS activity” value on B. duncani DHFR-TS [7] is recorded as “inhibits the activity”. Moreover, in [8], the bioavailability result is “poor bioavailability” and the gastrointestinal tolerability entry was “caused gastrointestinal complications”. Further, in the data set with B. duncani, the IC50 was 0.0005 µM.
